In patent publication EP2970215B1, “PYRROLIDINE DERIVATIVES, PHARMACEUTICAL COMPOSITIONS CONTAINING THEM, AND THEIR USE IN THERAPY” (AbbVie Deutschland GmbH & Co. KG, priority 2013, dated 2014):

Biological target: T1, human GlyT1c transporter (Homo sapiens, UniProt P48067)
T1 construct: expressed in transfected cells; host or cells: CHO cells (recombinant; line hGlyT1c_5_CHO is named for the uptake assay)
T1 sequence (P48067 1-706): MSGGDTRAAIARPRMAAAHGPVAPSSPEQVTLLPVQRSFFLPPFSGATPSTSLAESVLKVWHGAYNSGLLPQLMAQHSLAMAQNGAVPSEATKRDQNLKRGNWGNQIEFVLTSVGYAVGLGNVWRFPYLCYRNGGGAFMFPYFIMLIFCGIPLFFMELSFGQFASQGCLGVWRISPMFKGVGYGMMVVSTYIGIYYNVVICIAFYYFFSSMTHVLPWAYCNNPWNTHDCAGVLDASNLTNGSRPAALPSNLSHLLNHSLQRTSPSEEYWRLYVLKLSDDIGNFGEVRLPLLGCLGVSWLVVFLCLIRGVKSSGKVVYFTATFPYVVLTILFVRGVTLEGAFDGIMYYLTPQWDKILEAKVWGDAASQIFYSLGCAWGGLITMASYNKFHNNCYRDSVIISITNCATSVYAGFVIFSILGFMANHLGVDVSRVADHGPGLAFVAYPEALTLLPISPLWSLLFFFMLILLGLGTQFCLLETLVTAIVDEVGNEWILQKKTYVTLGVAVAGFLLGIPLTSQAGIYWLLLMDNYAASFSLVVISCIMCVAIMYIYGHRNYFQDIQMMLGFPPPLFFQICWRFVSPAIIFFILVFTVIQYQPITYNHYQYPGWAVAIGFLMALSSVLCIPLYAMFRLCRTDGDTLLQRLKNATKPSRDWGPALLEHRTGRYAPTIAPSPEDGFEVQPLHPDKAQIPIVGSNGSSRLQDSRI
Assay: Radioligand binding assay using recombinant CHO cell membranes expressing human GlyT1
Details: radioligand binding to human GlyT1c transporter-expressing membranes
Text: 2. Radioligand binding assays using recombinant CHO cell membranes expressing human GlyT1: […]

Question: Which Ki does the source give for `CCOCCCN[C@H]1CN(S(=O)(=O)c2cn(C)cn2)C[C@@H]1c1ccccc1` [Example 589, (3R,4S)-N-(3-ethoxypropyl)-1-[(1-methyl-1H-imidazol-4-yl)sulfonyl]-4-phenylpyrrolidin-3-amine] here?
Answer: Its Ki is at most 1 µM.

Question: With `Cn1cnc(S(=O)(=O)N2C[C@@H](C(=O)Nc3ccc(F)c(OC(F)(F)F)c3)[C@H](c3ccc(F)cc3)C2)c1` (relative stereo) [Example 370, Trans-4-(4-fluorophenyl)-N-[4-fluoro-3-(trifluoromethoxy)phenyl]-1-[(1-methyl-1H-imidazol-4-yl)sulfonyl]pyrrolidine-3-carboxamide] as the compound, how does the Ki read?
Answer: Its Ki is at most 1 µM.

Question: `Cn1cnc(S(=O)(=O)N2C[C@H](NCc3nc4c(s3)CCCC4)[C@@H](c3ccccc3)C2)c1` [Example 456, (3R,4S)-1-[(1-methyl-1H-imidazol-4-yl)sulfonyl]-4-phenyl-N-(4,5,6,7-tetrahydro-1,3-benzothiazol-2-ylmethyl)pyrrolidin-3-amine] was tested. Which Ki did it give?
Answer: Its Ki is at most 1 µM.

Question: Which Ki does the source give for `Cn1cnc(S(=O)(=O)N2C[C@H](Nc3cc(OC4CCCC4)ncn3)[C@@H](c3ccc(F)cc3)C2)c1` [Example 720, 6-(cyclopentyloxy)-N-{(3R,4S)-4-(4-fluorophenyl)-1-[(1-methyl-1H-imidazol-4-yl)sulfonyl]pyrrolidin-3-yl}pyrimidin-4-amine] here?
Answer: Its Ki is at most 0.1 µM.

Question: Which Ki does the source give for `Cc1nc(S(=O)(=O)N2C[C@H](Nc3ccc(F)c(F)c3)[C@@H](c3ccc(F)cc3)C2)cn1C` [Example 755, (3R,4S)-N-(3,4-difluorophenyl)-1-[(1,2-dimethyl-1H-imidazol-4-yl)sulfonyl]-4-(4-fluorophenyl)pyrrolidin-3-amine] here?
Answer: Its Ki is at least 10 µM.

Question: Which Ki does the source give for `O=S(=O)(c1ccc2c(c1)OCO2)N1CC(Nc2ccc(F)c(F)c2)C(c2ccccc2)C1` (stereo not shown) [Example 495, 1-(1,3-benzodioxol-5-ylsulfonyl)-N-(3,4-difluorophenyl)-4-phenylpyrrolidin-3-amine] here?
Answer: The Ki was over 10 µM.

Question: Which Ki does the source give for `Cn1cnc(S(=O)(=O)N2C[C@H](NC(=O)CC3CC3)[C@@H](c3ccccc3)C2)c1` [Example 546, 2-cyclopropyl-N-{(3R,4S)-1-[(1-methyl-1H-imidazol-4-yl)sulfonyl]-4-phenylpyrrolidin-3-yl}acetamide] here?
Answer: The Ki was at least 10 µM.

Question: Which Ki does the source give for `Cn1cnc(S(=O)(=O)N2C[C@@H](COc3ccc(Cl)c(C(F)(F)F)c3)[C@H](c3ccc(F)cc3)C2)c1` (relative stereo) [Example 249, 4-{[trans-3-{[4-chloro-3-(trifluoromethyl)phenoxy]methyl}-4-(4-fluorophenyl)pyrrolidin-1-yl]sulfonyl}-1-methyl-1H-imidazole] here?
Answer: The Ki was at most 1 µM.

Question: `Cc1nc(N[C@H]2CN(S(=O)(=O)c3cn(C)cn3)C[C@@H]2c2ccccc2)nn1C` [Example 575, 1,5-dimethyl-N-{(3R,4S)-1-[(1-methyl-1H-imidazol-4-yl)sulfonyl]-4-phenylpyrrolidin-3-yl}-1H-1,2,4-triazol-3-amine] was tested. Which Ki did it give?
Answer: Its Ki is at most 10 µM.

Question: For `Cn1cnc(S(=O)(=O)N2C[C@@H](C(=O)Nc3ccc(F)cc3)[C@H](c3ccc(F)cc3)C2)c1` (relative stereo) [Example 358, Trans-N,4-bis(4-fluorophenyl)-1-[(1-methyl-1H-imidazol-4-yl)sulfonyl]pyrrolidine-3-carboxamide], which Ki is on record?
Answer: The Ki was at most 0.1 µM.

Question: With `CCCOCCN[C@H]1CN(S(=O)(=O)c2cn(C)cn2)C[C@@H]1c1ccccc1` [Example 609, (3R,4S)-1-[(1-methyl-1H-imidazol-4-yl)sulfonyl]-4-phenyl-N-(2-propoxyethyl)pyrrolidin-3-amine] as the compound, how does the Ki read?
Answer: Its Ki is at most 1 µM.

Question: For `NC(=O)c1ccccc1S(=O)(=O)N1C[C@@H](Nc2cc(C(F)(F)F)ccn2)[C@H](c2ccccc2)C1` (relative stereo) [Example 526, 2-{[trans-3-phenyl-4-{[4-(trifluoromethyl)pyridin-2-yl]amino}pyrrolidin-1-yl]sulfonyl}benzamide], which Ki is on record?
Answer: Its Ki is at most 10 µM.

Question: Which Ki does the source give for `Cn1cnc(S(=O)(=O)N2C[C@H](Nc3cc(OCC4CCNC4)ncn3)[C@@H](c3ccc(F)cc3)C2)c1` (stereo partly drawn) [Example 779, N-{(3R,4S)-4-(4-fluorophenyl)-1-[(1-methyl-1H-imidazol-4-yl)sulfonyl]pyrrolidin-3-yl}-6-(pyrrolidin-3-ylmethoxy)pyrimidin-4-amine] here?
Answer: Its Ki is at most 10 µM.

Question: For `Cn1cnc(S(=O)(=O)N2C[C@@H](Nc3ccc(Cl)c(OC(F)(F)F)c3)[C@H](c3ccccc3)C2)c1` (relative stereo) [Example 299, trans-N-[4-chloro-3-(trifluoromethoxy)phenyl]-1-[(1-methyl-1H-imidazol-4-yl)sulfonyl]-4-phenylpyrrolidin-3-amine], which Ki is on record?
Answer: The Ki was at most 1 µM.

Question: With `Cn1cnc(S(=O)(=O)N2C[C@@H](Nc3ccccc3Cl)[C@H](c3ccccc3)C2)c1` (relative stereo) [Example 73, trans-N-(2-chlorophenyl)-1-[(1-methyl-1H-imidazol-4-yl)sulfonyl]-4-phenylpyrrolidin-3-amine] as the compound, how does the Ki read?
Answer: The Ki was at most 10 µM.

Question: How did the Ki turn out when `COC(=O)CCCC(=O)N[C@H]1CN(S(=O)(=O)c2cn(C)cn2)C[C@@H]1c1ccc(F)cc1` [Example 662, methyl 5-({(3R,4S)-4-(4-fluorophenyl)-1-[(1-methyl-1H-imidazol-4-yl)sulfonyl]pyrrolidin-3-yl}amino)-5-oxopentanoate] was run?
Answer: The Ki was at most 10 µM.

Question: `Cn1cnc(S(=O)(=O)N2C[C@@H]([C@@H]3CCCOC3)[C@H](Nc3ccc(F)c(OC(F)(F)F)c3)C2)c1` (mixture of isomers) [Example 788, Trans-N-[4-fluoro-3-(trifluoromethoxy)phenyl]-1-[(1-methyl-1H-imidazol-4-yl)sulfonyl]-4-[(3S)-tetrahydro-2H-pyran-3-yl]pyrrolidin-3-amine] was tested. Which Ki did it give?
Answer: Its Ki is at most 1 µM.

Question: `N#Cc1ccccc1S(=O)(=O)N1C[C@@H](Nc2cccc(Cl)c2)[C@H](c2ccccc2)C1` (relative stereo) [Example 528, 2-({Trans-3-[(3-chlorophenyl)amino]-4-phenylpyrrolidin-1-yl}sulfonyl)benzonitrile] was tested. Which Ki did it give?
Answer: Its Ki is over 10 µM.

Question: `Cn1cnc(S(=O)(=O)N2C[C@@H](Nc3cccc(F)c3F)[C@H](c3ccc(F)cc3)C2)c1` (relative stereo) [Example 163, trans-N-(2,3-difluorophenyl)-4-(4-fluorophenyl)-1-[(1-methyl-1H-imidazol-4-yl)sulfonyl]pyrrolidin-3-amine] was tested. Which Ki did it give?
Answer: The Ki was at most 1 µM.

Question: Which Ki does the source give for `O=S(=O)(C1CCCCC1)N1CC(Nc2ccc(F)c(F)c2)C(c2ccccc2)C1` (stereo not shown) [Example 510, 1-(cyclohexylsulfonyl)-N-(3,4-difluorophenyl)-4-phenylpyrrolidin-3-amine] here?
Answer: The Ki was at most 10 µM.

Question: With `Cc1csc(S(=O)(=O)N2CC(Nc3ccc(F)c(F)c3)C(c3ccccc3)C2)c1` (stereo not shown) [Example 484, N-(3,4-difluorophenyl)-1-[(4-methylthiophen-2-yl)sulfonyl]-4-phenylpyrrolidin-3-amine] as the compound, how does the Ki read?
Answer: Its Ki is at most 10 µM.

Question: With `Cn1cnc(S(=O)(=O)N2C[C@@H](NCc3ccc(C(F)(F)F)cc3)[C@H](c3ccc(F)cc3)C2)c1` (relative stereo) [Example 267, trans-4-(4-fluorophenyl)-1-[(1-methyl-1H-imidazol-4-yl)sulfonyl]-N-[4-(trifluoromethyl)benzyl]pyrrolidin-3-amine] as the compound, how does the Ki read?
Answer: The Ki was at most 0.01 µM.

Question: Which Ki does the source give for `Cn1cnc(S(=O)(=O)N2C[C@@H](Nc3cccc(OC(F)(F)F)c3)[C@H](C3CCCCC3)C2)c1` (relative stereo) [Example 425, Trans-4-cyclohexyl-1-[(1-methyl-1H-imidazol-4-yl)sulfonyl]-N-[3-(trifluoromethoxy)phenyl]pyrrolidin-3-amine] here?
Answer: Its Ki is at most 0.01 µM.

Question: For `COc1cc(N[C@H]2CN(S(=O)(=O)c3cn(C)cn3)C[C@@H]2c2ccccc2)ncn1` [Example 621, 6-methoxy-N-{(3R,4S)-1-[(1-methyl-1H-imidazol-4-yl)sulfonyl]-4-phenylpyrrolidin-3-yl}pyrimidin-4-amine], which Ki is on record?
Answer: Its Ki is at most 10 µM.

Question: `Cn1cnc(S(=O)(=O)N2C[C@@H](Nc3ccccc3C(F)(F)F)[C@H](c3ccc(F)cc3)C2)c1` (relative stereo) [Example 87, trans-4-(4-fluorophenyl)-1-[(1-methyl-1H-imidazol-4-yl)sulfonyl]-N-[2-(trifluoromethyl)phenyl]pyrrolidin-3-amine] was tested. Which Ki did it give?
Answer: Its Ki is at most 10 µM.

Question: For `Cn1cnc(S(=O)(=O)N2C[C@@H](Nc3ccccc3F)[C@H](c3ccc(F)cc3)C2)c1` (relative stereo) [Example 90, trans-N-(2-fluorophenyl)-4-(4-fluorophenyl)-1-[(1-methyl-1H-imidazol-4-yl)sulfonyl]pyrrolidin-3-amine], which Ki is on record?
Answer: Its Ki is at most 1 µM.

Question: With `COCCNC[C@@H]1CN(S(=O)(=O)c2cn(C)cn2)C[C@H]1c1ccc(F)cc1` (relative stereo) [Example 593, N-({trans-4-(4-fluorophenyl)-1-[(1-methyl-1H-imidazol-4-yl)sulfonyl]pyrrolidin-3-yl}methyl)-2-methoxyethanamine] as the compound, how does the Ki read?
Answer: Its Ki is at most 10 µM.

Same assay, conditions: radioligand binding, recombinant CHO cell membranes expressing human GlyT1c

Question: With `Cn1cnc(S(=O)(=O)N2C[C@@H](NCc3ccc(C(F)(F)F)cc3Cl)[C@H](C3CCCO3)C2)c1` (relative stereo) [Example 822, Trans-N-[2-chloro-4-(trifluoromethyl)benzyl]-1-[(1-methyl-1H-imidazol-4-yl)sulfonyl]-4-(tetrahydrofuran-2-yl)pyrrolidin-3-amine] as the compound, how does the Ki read?
Answer: Its Ki is at most 1 µM.
